Values after ≈ are worked out from the molar mass of the structure shown.
Columns and labels:
Leishmania donovani [1] = experiment: Antileishmanial activity against Leishmania donovani promastigotes after 48 hrs by MTT assay; type: functional, organism-based
Leishmania donovani [2] = experiment: Antileishmanial activity against Leishmania donovani amastigotes infected in mouse J774G8 cells after 48 to 72 hrs by Giemsa staining-based bright-field microscopic analysis; type: functional, organism-based
[3] = tested on: Leishmania mexicana venezuelensis; experiment: Antileishmanial activity against Leishmania venezuelensis MHOM/VE/74/PM-H3 amastigotes infected in BALB/c mouse assessed as reduction in parasitic load in footpad at 14 to 56 mg/kg, sc bid treated for 15 days at interval of 4 days and measured at 1 week post last dose by Giemsa staining-based inverted microscopic analysis relative to control; type: functional; parameters: scale not given: the % may be the effect or the level left
Leishmania infantum [4] = experiment: Antileishmanial activity against zymodemes of Leishmania infantum MCAN/ES/90/DP204 promastigotes by Neubauer chamber analysis; type: functional, organism-based
[5] = tested on: Mycobacterium tuberculosis; experiment: Antitubercular activity against Mycobacterium tuberculosis H37Rv ATCC 27294 after 7 to 10 days by Resazurin microtiter assay; type: functional, organism-based
Leishmania donovani [6] = experiment: Antileishmanial activity against Leishmania donovani promastigotes infected in hamster assessed as reduction in parasitic load in liver at 20 mg/kg, ip treated for 6 consecutive days measured at day 8 post last dose by 3H-thymidine incorporation assay relative to control; type: functional; parameters: scale not given: the % may be the effect or the level left
Leishmania donovani [7] = experiment: Antileishmanial activity against Leishmania donovani promastigotes infected in hamster assessed as reduction in parasitic load in spleen at 20 mg/kg, ip treated for 6 consecutive days measured at day 8 post last dose by 3H-thymidine incorporation assay relative to control; type: functional; parameters: scale not given: the % may be the effect or the level left
Leishmania major [8] = experiment: Antileishmanial activity against Leishmania major MHOM/IL/67/LRC-L137 promastigotes after 2 hrs by 3H-thymidine incorporation assay; type: functional, organism-based
Leishmania donovani [9] = experiment: Antileishmanial activity against Leishmania donovani MHOM/SD/00/1SD2D axenic amastigotes infected in human peripheral blood mononuclear cells after 3 days by 3H-thymidine incorporation assay; type: functional, organism-based
Leishmania donovani [10] = experiment: Antileishmanial activity against Leishmania donovani […]/IN/80/DD8 promastigotes after 72 hrs by MTT assay; type: functional, organism-based; conditions: […]/IN/80/DD8, 72 h
Leishmania donovani [11] = experiment: (§1) Antileishmanial activity against Leishmania donovani promastigotes infected in golden hamster assessed as reduction in parasitic load in spleen at 3.5 mg/kg, po administered 2 times a week for 4 weeks starting at 4 days post-infection measured 1 week post last dose by Giemsa staining-based assay relative to control; type: functional; parameters: scale not given: the % may be the effect or the level left
Leishmania donovani [12] = experiment: Antileishmanial activity against wild type Leishmania donovani LV9 promastigotes by MTT assay; type: functional, organism-based
Leishmania amazonensis [13] = experiment: Antileishmanial activity against Leishmania amazonensis promastigotes; type: functional, organism-based
Leishmania amazonensis [14] = experiment: Antileishmanial activity against Leishmania amazonensis axenic amastigotes; type: functional, organism-based
[15] = Cytotoxicity against human U937 cells assessed as reduction in cell viability after 72 hrs by MTT assay; type: cell-based, U-937; conditions: read-out: LD50
Leishmania panamensis = experiment: Antileishmanial activity against GFP-fused Leishmania panamensis MHOM/CO/87/UA140pIR amastigotes infected in human U937 cells after 72 hrs by flow cytometric analysis; type: functional, organism-based; conditions: U-937, 72 h
Leishmania mexicana [16] = experiment: Antileishmanial activity against Leishmania mexicana LV4 promastigotes; type: functional, organism-based
Leishmania mexicana [17] = experiment: Antileishmanial activity against Leishmania mexicana LV4 amastigotes infected in BALB/c bone marrow-derived macrophages assessed as reduction in cell viability after 2 hrs by trypan blue staining based bright-field microscopic analysis; type: functional, organism-based; conditions: LV4, 2 h
Leishmania donovani [18] = experiment: Antileishmanial activity against Leishmania donovani MHOM/ET/ 67/L82 amastigotes infected in BALB/c mouse assessed as reduction in parasitic load in liver at 100 mg/kg, sc qd administered for 5 days measured at 3 days post last dose relative to control; type: functional; parameters: scale not given: the % may be the effect or the level left
Leishmania donovani [19] = experiment: Antileishmanial activity against Leishmania donovani intracellular amastigotes infected in mouse J774A.1 cells by flow cytometry; type: functional, organism-based; conditions: J774.A1
[20] = Cytotoxicity against BALB/c mouse peritoneal cells assessed as reduction in cell viability after 24 hrs by MTT assay; type: cell-based
Leishmania donovani [21] = experiment: as §1, with “14” for “3.5”; type: functional; parameters: scale not given: the % may be the effect or the level left
Leishmania amazonensis [22] = experiment: Antileishmanial activity against Leishmania amazonensis MHOM/BR/75/Josefa intracellular amastigotes after 72 hrs by Neubauer hemocytometric analysis; type: functional, organism-based
Leishmania amazonensis [23] = experiment: Antileishmanial activity against Leishmania amazonensis MHOM/BR/75/Josefa axenic amastigotes after 72 hrs by Neubauer hemocytometric analysis; type: functional, organism-based
Leishmania amazonensis [24] = experiment: Antileishmanial activity against Leishmania amazonensis MHOM/BR/75/Josefa promastigotes after 72 hrs by Neubauer hemocytometric analysis; type: functional, organism-based
Leishmania infantum [25] = experiment: Antileishmanial activity against Leishmania infantum MCAN/BR/97/P142 promastigotes after 24 hrs; type: functional, organism-based; conditions: MCAN/BR/97/P142, 24 h
Leishmania amazonensis [26] = experiment: Antileishmanial activity against Leishmania amazonensis MHOM/BR/77/LTB0016 promastigotes after 24 hrs; type: functional, organism-based; conditions: MHOM/BR/77/LTB0016, 24 h
Leishmania amazonensis [27] = experiment: Antileishmanial activity against Leishmania amazonensis […]/BR/75/Josefa promastigotes; type: functional, organism-based
Leishmania amazonensis [28] = experiment: Antileishmanial activity against Leishmania amazonensis […]/BR/75/Josefa axenic amastigotes infected in mouse J774A1 cells; type: functional, organism-based; conditions: J774.A1
Leishmania aethiopica = experiment: Antileishmanial activity against Leishmania aethiopica amastigotes; type: functional, organism-based
Leishmania amazonensis [29] = experiment: Antileishmanial activity against Leishmania amazonensis MHOM/BR/76/LTB-012 axenic amastigotes after 72 hrs by MTT assay; type: functional, organism-based; conditions: MHOM/BR/76/LTB-012, 72 h
Leishmania amazonensis [30] = experiment: Antileishmanial activity against Leishmania amazonensis MCAN/ES/92/BCN83 axenic amastigotes infected in BALB/c mouse assessed as reduction in parasitic burden at 10 mg/kg, ip administered as daily dose for 3 continuous days and measured at day 5 post last dose by limit dilution assay relative to control; type: functional; parameters: scale not given: the % may be the effect or the level left
Leishmania amazonensis [31] = experiment: Antileishmanial activity against Leishmania amazonensis promastigotes assessed as reduction in parasitic growth after 5 to 7 days by Neubauer chamber analysis; type: functional, organism-based
Leishmania major [32] = experiment: Antileishmanial activity against Leishmania major amastigotes; type: functional, organism-based

C/C=C1\C(=O)O[C@]23C=C[C@@H]4C(C(=O)OC)=CO[C@H](O[C@@H]12)[C@@H]43 [ISOPLUMERICIN]
IC50 (Leishmania donovani [1]): 3.17 µM | IC50 (Leishmania donovani [2]): 1.41 µM

C/C=C/c1ccc2ccccc2n1 [CHIMANINE B]
Activity [3]: 95%

CC(C)=CCC[C@@](C)(O)C1CC=C(C)CC1 (some centres not stated)
IC50 (Leishmania infantum [4]): 11 µg/mL (≈ 49.4 µM)

COC(=O)CC[C@@H](C)[C@H]1CC[C@H]2[C@@H]3[C@H](O)C[C@@H]4C[C@@H](n5cc(CNCCNc6ccnc7cc(Cl)ccc67)nn5)CC[C@]4(C)[C@H]3C[C@H](O)[C@]12C
IC50 [5]: 10.6 µM

C=CC(C)(C)c1cc(/C=C/C(=O)c2ccc(O)cc2)c(OC)cc1O [LICOAGROCHACONE A]
Activity (Leishmania donovani [6]): >90% | Activity (Leishmania donovani [7]): >90% | IC50 (Leishmania major [8]): 7.2 µg/mL (≈ 21.3 µM) | IC50 (Leishmania donovani [9]): 0.9 µg/mL (≈ 2.66 µM)

O=c1oc2ccccc2c(O)c1C(c1ccccc1)c1c(O)c2ccccc2oc1=O
IC50 (Leishmania donovani [10]): 155 µg/mL (≈ 376 µM)

O=c1cc(-c2ccc(O)c(O)c2)oc2cc(O)cc(O)c12 [LUTEOLIN]
Activity (Leishmania donovani [11]): <=90%

COc1ccc(N[C@]2(C(F)(F)F)O[C@@H]3O[C@@]4(C)CC[C@H]5[C@H](C)CC[C@@H]([C@H]2C)[C@@]35OO4)cc1
IC50 (Leishmania donovani [12]): 1.5 µM

Cc1cccc(-c2ccn(S(=O)(=O)c3ccccc3)n2)c1NS(=O)(=O)c1ccccc1
IC50 (Leishmania amazonensis [13]): 6.7 µM | IC50 (Leishmania amazonensis [14]): 56 µM

Cc1cc(=O)oc2cc(OCCCCOc3cc(Cl)ccc3Oc3ccc(Cl)cc3Cl)ccc12
CC50 at 72 h [15]: > 200 µg/mL | EC50 (Leishmania panamensis): 27.5 µg/mL (≈ 52.9 µM)

C=CCCCCC/C=C\CC#CC#C[C@@H](O)C=C
IC50 (Leishmania mexicana [16]): 0.55 µM | IC50 (Leishmania mexicana [17]): 0.48 µM

CC(=O)O[C@@]12CO[C@@H]1C[C@H](O)[C@@]1(C)C(=O)[C@H](O)C3=C(C)[C@@H](O)C[C@@](O)([C@@H](OC(=O)c4ccccc4)[C@H]21)C3(C)C
Activity (Leishmania donovani [18]): 42%

c1ccc2c(c1)Sc1ccccc1S2 [THIANTHRENE]
IC50 (Leishmania donovani [19]): 23 µM

Cc1nn(-c2ccc(S(=O)(=O)Nc3ccccc3)cc2)c(Cl)c1Br
CC50 at 24 h [20]: 144 µM

O=c1c(O)c(-c2ccc(O)c(O)c2)oc2cc(O)cc(O)c12 [QUERCETIN]
Activity (Leishmania donovani [21]): <=90%

C/C=C/c1ccc2oc(-c3ccc(O)c(OC)c3)c(C)c2c1
IC50 (Leishmania amazonensis [22]): 5 µg/mL (≈ 17 µM) | IC50 (Leishmania amazonensis [23]): 13 µg/mL (≈ 44.2 µM) | IC50 (Leishmania amazonensis [24]): 9 µg/mL (≈ 30.6 µM)

Cc1nn(-c2ccc(S(=O)(=O)Nc3ccc(Cl)cc3)cc2)c(Cl)c1Br
IC50 (Leishmania infantum [25]): 0.065 µM | CC50 at 24 h [20]: 116 µM | IC50 (Leishmania amazonensis [26]): 0.072 µM

CCCCNC(=O)c1cc2c([nH]c3ccccc32)c(-c2ccc(OC)cc2)n1
IC50 (Leishmania amazonensis [27]): 4.44 µM | IC50 (Leishmania amazonensis [28]): 12.5 µM

COc1ccc(C(c2c(O)c3ccccc3oc2=O)c2c(O)c3ccccc3oc2=O)c(OC)c1
IC50 (Leishmania donovani [10]): 158 µg/mL (≈ 333 µM)

CCC(=O)N1N=C(c2ccccc2)CC1c1cn(-c2ccccc2)nc1-c1ccc(C)cc1 (configuration not stated)
IC50 (Leishmania aethiopica): 0.112 µg/mL (≈ 0.258 µM)

COc1cc(OC)c(C(c2c(O)c3ccccc3oc2=O)c2c(O)c3ccccc3oc2=O)c(OC)c1
IC50 (Leishmania donovani [10]): 150 µg/mL (≈ 299 µM)

O=C1c2ccccc2C2=NCCc3cccc1c32
IC50 (Leishmania amazonensis [29]): < 0.05 µM | Activity (Leishmania amazonensis [30]): <=90%

O=C1C2=C(CCCC2)C2=NCCc3cccc1c32
IC50 (Leishmania amazonensis [29]): 0.025 µM

C[C@@]12C[C@H]3OC(=O)[C@@H]1CO[C@]14O[C@@]5([C@H]2C1=O)[C@@]3(C)OC(=O)[C@@]5(O)CC[C@H]1[C@H]4C[C@H]2O[C@]23CC=CC(=O)[C@]13C
IC50 (Leishmania amazonensis [31]): 1.4 µM

O=c1ccoc2cc(OCCCCOc3cc(Cl)ccc3Oc3ccc(Cl)cc3Cl)ccc12
CC50 at 72 h [15]: 15.8 µg/mL (≈ 31.2 µM) | EC50 (Leishmania panamensis): 7.5 µg/mL (≈ 14.8 µM)

C/C=C1/C(=O)O[C@]23C=C[C@@H]4C(C(=O)OC)=CO[C@H](O[C@@H]12)[C@@H]43 [PLUMERICIN]
IC50 (Leishmania donovani [1]): 7.2 µM | IC50 (Leishmania donovani [2]): 4.1 µM

CC(C)c1nc2nc(N)nc(N)c2nc1C(C)C
IC50 (Leishmania major [32]): 0.5 µM

— ChEMBL document CHEMBL4308857, “Leishmania treatment and prevention: Natural and synthesized drugs” (Eur J Med Chem, 2018)
